The structures appear in SMILES notation.

The target in this assay is T1, human GPR120 (Homo sapiens, UniProt Q5NUL3).
T1 construct: expressed in transfected cells
T1 sequence (Q5NUL3 1-361): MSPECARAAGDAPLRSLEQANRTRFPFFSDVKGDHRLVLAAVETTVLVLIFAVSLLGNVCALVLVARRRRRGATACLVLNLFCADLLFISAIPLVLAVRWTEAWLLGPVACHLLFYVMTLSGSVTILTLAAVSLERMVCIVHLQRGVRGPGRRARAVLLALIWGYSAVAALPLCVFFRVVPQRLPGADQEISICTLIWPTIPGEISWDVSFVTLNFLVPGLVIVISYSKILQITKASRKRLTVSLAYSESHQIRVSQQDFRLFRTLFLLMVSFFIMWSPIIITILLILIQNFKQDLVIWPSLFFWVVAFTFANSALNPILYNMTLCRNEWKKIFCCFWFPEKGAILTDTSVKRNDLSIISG
Description: Human GPR120 IP1 Assay (inositol phosphate turnover, CisBio IP-One kit). In kind it is cell-based. Particulars: IP1 accumulation in CHO-K1 cells stably expressing the short form of human GPR120; 60 min compound incubation; 4-parameter fit; read-out: hGPR120 EC50. Put shortly:
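CHO-K1 cells stably expressing short-form human GPR120 were stimulated with compounds for 60 minutes at 37 degrees in stimulation buffer. IP1 accumulation measured by HTRF competitive immunoassay (665/620 nm ratio) against an IP1 standard curve, normalized to a reference compound; EC50 from 4-parameter fit.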
Turning to `CO[C@H]1C[C@H](Oc2cc(F)c(F)c(N3CCc4cc([C@@H]5C[C@H]5C(=O)O)ccc4C3)c2)C1` [Example 99, (1R,2R)-2-(2-{2,3-difluoro-5-[(trans-3-methoxycyclobutyl)oxy]phenyl}-1,2,3,4-tetrahydro-isoquinolin-6-yl)-cyclopropanecarboxylic acid], the concentration giving a half-maximal response (EC50) turned out to be 127 nM. The result for `Cc1cnc(Oc2cc(Cl)c(F)c(N3CCc4cc(CCC(=O)O)ccc4C3)c2)s1` [Example 9] reads 20 nM; that for `CO[C@H]1C[C@H](Oc2cc(F)c(F)c(N3CCc4c(ccc([C@@H]5C[C@H]5C(=O)O)c4F)C3)c2)C1` [Example 110, (1R,2R)-2-(2-{2,3-difluoro-5-[(trans-3-methoxycyclobutyl)oxy]phenyl}-5-fluoro-1,2,3,4-tetrahydroisoquinolin-6-yl)-cyclopropanecarboxylic acid], 42 nM. Take `CC1c2ccc(CCC(=O)O)cc2CCN1c1cc(OC2CCC2)ccc1F` (stereo not drawn) [Example 39, 3-{2-[5-(cyclobutyloxy)-2-fluorophenyl]-1-methyl-1,2,3,4-tetra-hydroisoquinolin-6-yl}propanoic acid]: the EC50 was 417 nM. As for `O=C(O)CCc1ccc2c(c1)CCN(c1cc(Oc3cnccn3)ccc1F)C2` [Example 33, 3-{2-[2-fluoro-5-(pyrazin-2-yloxy)phenyl]-1,2,3,4-tetrahydroiso-quinolin-6-yl}propanoic acid], the EC50 was 192 nM. Consider `C[C@H]1C[C@H](Oc2cc(F)c(F)c(N3CCc4cc([C@@H]5C[C@H]5C(=O)O)ccc4C3)c2)C1` [Example 101, (1R,2R)-2-(2-{2,3-difluoro-5-[(trans-3-methylcyclobutyl)oxy]phenyl}-1,2,3,4-tetrahydroiso-quinolin-6-yl)-cyclopropane-carboxylic acid], for which the EC50 amounted to 273 nM.

Turning to `C[C@H]1C[C@H](Oc2cc(F)c(F)c(N3CCc4c(ccc([C@H]5C[C@@H]5C(=O)O)c4F)C3)c2)C1` [Example 108, (1S,2S)-2-(2-(2,3-difluoro-5-((1r,3S)-3-methylcyclobutoxy)phenyl)-5-fluoro-1,2,3,4-tetra-hydroisoquinolin-6-yl)cyclopropanecarboxylic acid], the EC50 worked out at 122 nM. With `O=C(O)[C@H]1C[C@@H]1c1ccc2c(c1F)CCN(c1cc(OC(F)(F)F)ccc1F)C2` [Example 118, (1S,2S)-2-{5-fluoro-2-[2-fluoro-5-(trifluoromethoxy)phenyl]-1,2,3,4-tetrahydroisoquinolin-6-yl} cyclopropane-carboxylic acid], the EC50 amounted to 215 nM. To `N#Cc1ccc(OC(F)(F)F)cc1N1CCc2c(ccc(CCC(=O)O)c2F)C1` [Example 78, 3-{2-[2-cyano-5-(trifluoromethoxy)phenyl]-5-fluoro-1,2,3,4-tetrahydro-isoquinolin-6-yl}propanoic acid] belongs 19 nM; to `O=C(O)CCc1ccc2c(c1)CCN(c1cc(OC(F)(F)F)cc(Cl)c1F)C2` [Example 15, 3-{2-[3-chloro-2-fluoro-5-(trifluoromethoxy)phenyl]-1,2,3,4-tetrahydroisoquinolin-6-yl}-propanoic acid], 22 nM. As for `COc1cc(Cl)c(N2CCc3cc(CCC(=O)O)ccc3C2)cc1OC1CCC1` [Example 24, 3-{2-[2-chloro-5-(cyclobutyloxy)-4-methoxyphenyl]-1,2,3,4-tetrahydroisoquinolin-6-yl}propanoic acid], the half-maximal effective concentration (EC50) is 61 nM.

With `CC1c2ccc(CCC(=O)O)cc2CCN1c1cc(OC2CCC2)ccc1F` (stereo not drawn) [Example 6, 3-(2-(5-cyclobutoxy-2-fluorophenyl)-1-methyl-1,2,3,4-tetrahydroisoquinolin-6-yl)-propanoic acid], the EC50 was 417 nM. The result for `COc1cc(Oc2ncc(C)s2)cc(N2CCc3cc(CCC(=O)O)ccc3C2)c1F` [Example 17, 3-(2-{2-fluoro-3-methoxy-5-[(5-methyl-1,3-thiazol-2-yl)oxy]phenyl}-1,2,3,4-tetrahydroiso-quinolin-6-yl)propanoic acid] reads 23 nM; that for `Cc1ccc(-n2nc(C)c(C#N)c2N2CCc3cc(C(C)CCCC(=O)O)ccc3C2)cc1` (single isomer, unassigned) [Example 140, 5-{2-[4-cyano-3-methyl-1-(4-methylphenyl)-1H-pyrazol-5-yl]-1,2,3,4-tetrahydroisoquinolin-6-yl} hexanoic acid], 209 nM. As to `N#Cc1cc(OC(F)(F)F)cc(N2CCc3c(ccc([C@@H]4C[C@H]4C(=O)O)c3F)C2)c1F` [Example 109, (1R,2R)-2-{2-[3-cyano-2-fluoro-5-(trifluoromethoxy)phenyl]-5-fluoro-1,2,3,4-tetrahydroisoquinolin-6-yl}cyclopropane-carboxylic acid], the concentration for a half-maximal effect (EC50) amounted to 22 nM.

For the molecule `CO[C@H]1C[C@H](Oc2cc(F)c(F)c(N3CCc4c(ccc(CCC(=O)O)c4F)C3)c2)C1` [Example 66, 3-(2-{2,3-difluoro-5-[(trans-3-methoxycyclobutyl)oxy]phenyl}-5-fluoro-1,2,3,4-tetrahydroisoquino-lin-6-yl)-propanoic acid], the 50% effective concentration (EC50) was 41 nM. The result for `COc1ccc(-n2nc(C)c(C#N)c2N2CCc3ccccc3C2)cc1` [Example 141, 5-(3,4-dihydroisoquinolin-2(1H)-yl)-1-(4-methoxyphenyl)-3-methyl-1H-pyrazole-4-carbonitrile] reads 288 nM; that for `CO[C@H]1C[C@H](Oc2cc(F)c(F)c(N3CCc4c(ccc([C@H]5C[C@@H]5C(=O)O)c4F)C3)c2)C1` [Example 106, (1 S,2S)-2-(2-(2,3-difluoro-5-((1 r,3S)-3-methoxycyclobutoxy)phenyl)-5-fluoro-1,2,3,4-tetra-hydroisoquinolin-6-yl)cyclopropanecarboxylic acid], 83 nM; that for `N#Cc1cc(OC(F)(F)F)cc(N2CCc3c(ccc([C@H]4C[C@@H]4C(=O)O)c3F)C2)c1F` [Example 116, (1S,2S)-2-{2-[3-cyano-2-fluoro-5-(trifluoromethoxy)phenyl]-5-fluoro-1,2,3,4-tetrahydroiso-quinolin-6-yl}cyclopropane-carboxylic acid], 107 nM. The result for `O=C(O)CCc1ccc2c(c1)CCN(c1nc(OC3CCC3)ccc1F)C2` [Example 5, 3-(2-(6-cyclobutoxy-3-fluoropyridin-2-yl)-1,2,3,4-tetrahydro-isoquinolin-6-yl)-propanoic acid] reads 65 nM; that for `Cc1ccc(-n2nc(C)c(F)c2CN2CCc3cc(CCC(=O)O)ccc3C2)cc1` [Example 143, 3-(2-{[4-fluoro-3-methyl-1-(4-methylphenyl)-1H-pyrazol-5-yl]methyl}-1,2,3,4-tetrahydroisoquinolin-6-yl)propanoic acid], 395 nM.

Regarding `Cc1ccc(Oc2cc(C(F)F)c(F)c(N3CCc4cc(CCC(=O)O)ccc4C3)c2)nc1` [Example 16, 3-(2-{3-(difluoromethyl)-2-fluoro-5-[(5-methylpyridin-2-yl)oxy]phenyl}-1,2,3,4-tetrahydroiso-quinolin-6-yl)propanoic acid], the concentration giving a half-maximal response (EC50) turned out to be 22 nM. Turning to `Cc1cc2c(c(F)c1CCC(=O)O)CCN(c1cc(OC(F)(F)F)ccc1F)C2` [Example 58, 3-(5-fluoro-2-(2-fluoro-5-(trifluoromethoxy)phenyl)-7-methyl-1,2,3,4-tetra-hydroisoquinolin-6-yl)propanoic acid], the 50% effective concentration (EC50) stood at 472 nM.

With `Cc1ccc(-n2nc(C)c(F)c2N2CCc3cc(C4CC4C(=O)O)ccc3C2)cc1` (stereo not drawn) [Example 96, 2-{2-[4-fluoro-3-methyl-1-(4-methylphenyl)-1H-pyrazol-5-yl]-1,2,3,4-tetrahydroisoquinolin-6-yl}cyclopropanecarboxylic acid], the EC50 is 834 nM. Consider `O=C(O)CCc1ccc2c(c1)CCN(c1cc(OC3CCC3)cc(F)c1Cl)C2` [Example 45, 3-{2-[2-chloro-5-(cyclobutyloxy)-3-fluorophenyl]-1,2,3,4-tetrahydro-isoquinolin-6-yl}propanoic acid], for which the EC50 was found to be 2290 nM. To `CC(Cc1ccc2c(c1F)CCN(c1cc(OC(F)(F)F)cc(Cl)c1F)C2)C(=O)O` (single isomer, unassigned) [Example 69, 3-{2-[3-chloro-2-fluoro-5-(trifluoromethoxy)phenyl]-5-fluoro-1,2,3,4-tetrahydroisoquinolin-6-yl}-2-methyl-propanoic acid] belongs 231 nM. With `Cc1ccc(-n2nc(C)c(Cl)c2N2CCc3cc(CCCCC(=O)O)ccc3C2)cc1` [Example 137, 5-{2-[4-chloro-3-methyl-1-(4-methylphenyl)-1H-pyrazol-5-yl]-1,2,3,4-tetrahydroisoquinolin-6-yl} pentanoic acid], the concentration for a half-maximal effect (EC50) turned out to be 93 nM.

`Cc1nn(-c2ccc(F)cc2)c(N2CCc3cc(C4CC4C(=O)O)ccc3C2)c1F` (stereo not drawn) [Example 92, 2-{2-[4-fluoro-1-(4-fluorophenyl)-3-methyl-1H-pyrazol-5-yl]-1,2,3,4-tetrahydroisoquinolin-6-yl} cyclo-propanecarboxylic acid]: the EC50 came to 482 nM. As for `O=C(O)CCc1ccc2c(c1)CCN(c1cc(OC3CCC3)cc(Cl)c1F)C2` [Example 54, 3-{2-[3-chloro-5-(cyclobutyloxy)-2-fluorophenyl]-1,2,3,4-tetrahydro-isoquinolin-6-yl}propanoic acid], the EC50 stood at 1680 nM. In the case of `O=C(O)[C@@H]1C[C@H]1c1ccc2c(c1)CCN(c1cc(OC(F)(F)F)ccc1F)C2` [Example 87, (1R,2R)-2-{2-[2-fluoro-5-(trifluoro-methoxy)phenyl]-1,2,3,4-tetra hydroisoquinolin-6-yl}cyclo-propane carboxylic acid], the concentration for a half-maximal effect (EC50) was found to be 74 nM.

A word on the EC50: it is the midpoint of the concentration-response curve.

Values taken from patent publication US11161819B2, “Substituted tetrahydroisoquinoline compounds useful as GPR120 agonists” (Merck Sharp & Dohme Corp., priority 2016, dated 2021).
